Measured values reported in ChEMBL document CHEMBL1139967, “Design, synthesis, and SAR of macrocyclic tertiary carbinamine BACE-1 inhibitors” (Bioorg Med Chem Lett, 2007).

Key:
[1] = biological target: T1, Beta-secretase 2 (Homo sapiens, UniProt Q9Y5Z0); assay: Inhibition of BACE2
T1 sequence (Q9Y5Z0 whole entry): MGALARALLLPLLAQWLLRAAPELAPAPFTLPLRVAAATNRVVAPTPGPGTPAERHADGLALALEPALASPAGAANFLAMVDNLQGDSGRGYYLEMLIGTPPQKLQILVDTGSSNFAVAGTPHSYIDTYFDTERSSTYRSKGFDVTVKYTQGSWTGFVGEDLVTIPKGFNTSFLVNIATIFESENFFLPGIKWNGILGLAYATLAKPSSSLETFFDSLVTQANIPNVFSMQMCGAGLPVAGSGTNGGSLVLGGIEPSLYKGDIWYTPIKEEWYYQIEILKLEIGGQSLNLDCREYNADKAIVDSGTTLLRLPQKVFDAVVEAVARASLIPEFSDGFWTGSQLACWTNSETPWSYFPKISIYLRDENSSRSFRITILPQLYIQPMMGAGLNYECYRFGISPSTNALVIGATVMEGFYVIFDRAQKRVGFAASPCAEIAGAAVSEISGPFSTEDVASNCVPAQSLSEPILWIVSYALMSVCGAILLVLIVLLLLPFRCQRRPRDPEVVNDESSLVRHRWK

[2] = biological target: Cathepsin D (Homo sapiens, UniProt P07339)
Description: Inhibition of cathepsin D

[3] = biological target: T2, Renin (Homo sapiens, UniProt P00797); assay: Inhibition of renin
T2 sequence (P00797 whole entry): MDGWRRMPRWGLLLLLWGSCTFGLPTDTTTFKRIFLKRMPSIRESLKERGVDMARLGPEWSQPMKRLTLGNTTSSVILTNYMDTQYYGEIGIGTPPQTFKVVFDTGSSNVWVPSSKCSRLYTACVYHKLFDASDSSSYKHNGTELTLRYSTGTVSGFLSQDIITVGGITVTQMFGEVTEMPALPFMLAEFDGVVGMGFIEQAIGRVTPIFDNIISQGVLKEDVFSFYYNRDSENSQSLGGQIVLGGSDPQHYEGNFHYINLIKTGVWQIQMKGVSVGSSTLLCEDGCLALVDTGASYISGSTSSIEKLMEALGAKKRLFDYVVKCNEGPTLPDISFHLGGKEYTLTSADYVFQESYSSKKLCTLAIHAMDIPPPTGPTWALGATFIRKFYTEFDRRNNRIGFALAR

[4] = in vitro; details: human, LLC-PK1
Description: Apparent permeability across L-MDR1 cells

[5] = test system: Brain; assay: Drug level in mouse brain at 30 mg/kg, ip after 2 hrs; format: ADME, organism-based; design: dose 30 mg/kg, route intraperitoneal; details: in vivo

Chain of Cathepsin D (P07339 65-162 limits assumed): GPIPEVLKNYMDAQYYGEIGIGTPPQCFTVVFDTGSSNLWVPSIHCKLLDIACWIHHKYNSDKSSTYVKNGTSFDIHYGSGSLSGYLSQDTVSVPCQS
Chain of Cathepsin D (P07339 169-412 limits assumed): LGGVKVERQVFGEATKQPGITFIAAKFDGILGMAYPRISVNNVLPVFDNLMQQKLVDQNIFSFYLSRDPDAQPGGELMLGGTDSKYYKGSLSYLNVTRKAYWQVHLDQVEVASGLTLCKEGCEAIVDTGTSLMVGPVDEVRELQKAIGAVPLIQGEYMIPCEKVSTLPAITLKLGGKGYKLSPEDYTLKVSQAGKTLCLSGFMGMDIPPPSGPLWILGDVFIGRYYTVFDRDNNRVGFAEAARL

Compound	Papp [4]	also measured
CCCN(c1cc2cc(c1)C(=O)N[C@@H](c1ccccc1)CCc1cccc(c1)C[C@@](C)(N)COC2)S(C)(=O)=O	–	IC50 [1]: 1.6 µM; IC50 [2]: 275 µM; IC50 [3]: 144 µM
CN(c1cc2cc(c1)C(=O)N[C@@H](c1ccccc1)CCc1cccc(c1)C[C@@](C)(N)C(=O)OC2)S(=O)(=O)C(F)(F)F	13 ×10⁻⁶ cm/s	–
C[C@@]1(N)Cc2cccc(c2)CC[C@H](c2ccccc2)NC(=O)c2cc(Br)cc(c2)COC1=O	9 ×10⁻⁶ cm/s	–
C[C@@]1(N)Cc2ccc(F)c(c2)CC[C@H](c2ccc(F)cc2)NC(=O)c2cc(cc(-c3ccccc3C#N)c2)COC1=O	9 ×10⁻⁶ cm/s	–
C[C@@]1(N)Cc2cccc(c2)CC[C@H](c2ccc(F)cc2)NC(=O)c2cc(cc(-c3cccc(F)c3C#N)c2)COC1=O	7 ×10⁻⁶ cm/s	–
C[C@@]1(N)Cc2ccc(F)c(c2)CC[C@H](c2ccc(F)cc2)NC(=O)c2cc(cc(-c3cccc(F)c3C#N)c2)COC1=O	6 ×10⁻⁶ cm/s	–
CN(c1cc2cc(c1)C(=O)N[C@@H](c1ccccc1)CCc1cccc(c1)C[C@@](C)(N)C(=O)OC2)S(C)(=O)=O	9 ×10⁻⁶ cm/s	–
CCCN(c1cc2cc(c1)C(=O)N[C@@H](c1ccccc1)CCc1cccc(c1)C[C@@](C)(N)C(=O)OC2)S(C)(=O)=O	–	IC50 [1]: 54 µM; IC50 [2]: 97 µM; IC50 [3]: 169 µM
C[C@@]1(N)Cc2cccc(c2)CC[C@H](c2ccccc2)NC(=O)c2cc(cc(-c3ccccc3C#N)c2)COC1=O	9 ×10⁻⁶ cm/s	IC50 [1]: 41 µM; Activity [5]: 16%; IC50 [2]: 48 µM; IC50 [3]: 275 µM
C[C@@]1(N)Cc2cccc(c2F)CC[C@H](c2ccc(F)cc2)NC(=O)c2cc(cc(-c3ccccc3C#N)c2)COC1=O	6 ×10⁻⁶ cm/s	–
CN(c1cc2cc(c1)C(=O)N[C@@H](c1ccccc1)CCc1cccc(c1)C[C@@](C)(N)C(=O)OC2)S(=O)(=O)CC(F)(F)F	12 ×10⁻⁶ cm/s	–
CN(C)S(=O)(=O)N(C)c1cc2cc(c1)C(=O)N[C@@H](c1ccccc1)CCc1cccc(c1)C[C@@](C)(N)C(=O)OC2	15 ×10⁻⁶ cm/s	–
